According to patent US11000555B2, “Method for preparing a limax compound and therapeutic use thereof” (GUANGXI JIUFU BIOTECHNOLOGY CO., LTD, priority 2017, dated 2021):
Counter-ions that a name gives are not always drawn. Marks after values point to notes of the source that are not given here.

Assays:
mice [1] = assay: Mouse spontaneous activity test; type: in vivo, Kunming mice
Description: Forty Kunming mice, half males and half females, were fasted for 12 h but free to drink water. The mice were randomly divided into four groups: a blank control group, a low does Compound group (0.4 g/kg, ig), a high dose Compound group (0.8 g/kg, ig) and a positive drug control group (Estazolam, 2 mg/kg). The mice were placed into the YLS-1A multifunctional recorder for spontaneous activities of small animals. After 5 minutes of adaptation, the number of the mice's spontaneous activities before administration were recorded, and the recording lasted for 10 minutes. The room was kept quiet during recording, at a room temperature of 20-24° C. After this, each group of mice was administered according to the above doses, and the number of spontaneous activities within 10 min were recorded 45 min later. The blank control group was given the same volume of normal saline (ig).

mice [2] = assay: Inducing the mice to sleep by a subthreshold dose of pentobarbital sodium; type: in vivo, Kunming mice; details: Estazolam 2 mg/kg; pentobarbital sodium 30 mg/kg ip; n = 20
Description: Eighty Kunming mice, half males and half females, were fasted for 12 h but free to drink water. The mice were randomly divided into four groups: a blank control group, a low does Compound group (0.4 g/kg, ig), a high dose Compound group (0.8 g/kg, ig) and a positive drug control group (Estazolam, 2 mg/kg). each group of mice was administered according to the above doses (ig), and the blank control group was given the same volume of normal saline. Forty-five minutes later, each mouse was given (ip) 30 mg/kg pentobarbital sodium, and the number of mice falling asleep within 15 min was recorded by taking the absence of righting reflex more than 1 min as the indicator of falling asleep.

mice [3] = assay: Physical dependence test: induced withdrawal test for the mice; details: morphine hydrochloride sc twice a day, increasing 25 to 150 mg/kg daily, 7 days, naloxone 8 mg/kg ip
Description: The daily doses were 25, 50, 75, 100, 125, 150 mg/kg according to the dose increasing principle, increased day by day, reached 150 mg/kg on day 6 which was adopted the same on day 7. The compound group was administered (ig) twice daily (8:00 am, 8:00 pm) at daily doses of 0.6, 1.2, 1.8, 2.4, 3.0, 3.6 g/kg. The dose increased every day from 0.6 g/kg to 3.6 g/kg on day 6 which was adopted the same on day 7. The negative control group was given (ig) the same volume of vegetable oil every day at the same time and for the same times as the compound group. On day 7, naloxone (8 mg/kg, ip) was given to each group of mice to induce withdrawal. The jump reaction within 30 min and weight change one hour before and after inducement were observed. Weight loss value=weight before inducement−weight after inducement.

rats = assay: Physical dependence test: induced withdrawal test for the rats; details: morphine hydrochloride sc twice a day, increasing 5 to 60 mg/kg, 7 days; naloxone 5 mg/kg ip day 8
Description: The compound group was administered (ig) twice a day according to the dose increasing principle, at daily doses of 0.5, 1.0, 1.5, 2.0, 2.5, 3.0 g/kg. The dose was increased every day from 0.5 g/kg to 3.0 g/kg on day 6 which was adopted the same on day 7. The negative control group was given (ig) the same volume of vegetable oil per day at the same time and for the same times as the compound group. On day 8, the rats in each group were given naloxone (5 mg/kg, ip) to induce withdrawal, and the withdrawal status of the rats within 30 min and the weight change one hour before and after the inducement were observed. The evaluation criteria of withdrawal symptoms of rats were established by referring to the Tomoji Yanagita evaluation criteria and our pre-experimental results (see Appendix Table 17). The withdrawal scores and weight loss values of each group of rats were statistically processed. Weight loss value=weight before inducement−weight after inducement.

[4] = system: morphine-induced place preference of mice; assay: Conditioned place preference of morphine-induced mice; type: in vivo, Kunming mice
Description: The mice were acclimatized for 3 days, the natural place preference time of the mice was measured before the administration, so that the mice with obvious preference on one cuboid of the experimental box were excluded to clear the effect of unconditional place preference on the results. […] The observation was conducted under sound insulation conditions. […] Thus, the white cuboid was used as the non-preferred side (i.e., the companion box).
After 6 consecutive days of training and administration, the mice developed conditioned place preference.
Each group was administered for 3 consecutive days.

mice [5] = assay: Hot plate test of analgesic effect; type: in vivo, Kunming mice; details: hot plate 55° C.; for Pain threshold: methadone 20 mg/kg, cut-off 60 seconds
Description: Kunming mice, female, were selected. And a selection among them was conducted prior to the test. The hot plate was adjusted to 55° C.±0.5° C., the female mice were placed on the hot plate, and the duration (in seconds) required from placing the mice on the hot plate until the mice licked their feet as the normal pain threshold of the mice. All those who licked their feet within 5 s or after 30 s and jumped were abandoned. Forty qualified mice were selected and randomly divided into 4 groups: a blank control group, a low dose Compound group, a high dose Compound group, and a positive control group, 10 mice per group. The normal pain threshold of each mouse was measured repeatedly, and the average of two measurements was taken as the pre-administration pain threshold of the mouse. Each group was then administered (at doses and by delivery routes as above), 0.2 ml per 10 g body weight. The pain threshold of each group was measured 60 min and 120 min after administration. If a mouse remained unresponsive for more than 60 seconds on the hot plate, its pain threshold was calculated as 60 seconds.

morphine-dependent mice = assay: Therapeutic effect on naloxone-induced withdrawal symptoms of morphine-dependent mice; type: in vivo, Kunming mice; details: methadone 20 mg/kg ig
Description: The model of morphine-dependent mice was replicated by the dose-increasing method. […] Group (1) was a blank control group, injected subcutaneously (sc) with normal saline (0.2 ml/10 g), and groups (2)˜(5) were used to replicate the model of morphine-dependent mice by the dose-increasing method.
The administration continued for 3 days for each group. Mice were free to drink and eat. Naloxone (8.0 mg/kg, ip) was given 1 h after administrations on d1 and d3 during the treatment to induce withdrawal symptoms, and jumping reaction in 30 min and body weights before and after the inducement were observed.

mice [6] = assay: Acetic acid writhing test of mice; type: in vivo, Kunming mice; details: methadone 20 mg/kg, delivery route im; 0.6% acetic acid ip; in 20 min
Description: Forty Kunming mice, male, were fasted for 12 h before the experiment but free to drink water. They were randomly divided into 4 groups: a blank control group, a low dose Compound group, a high dose Compound group, and a positive control group. […] The mice were administered (ig) at a low dose (0.4 g/kg) and a high dose (0.8 g/kg) of the compound, at a volume of 0.2 ml per 10 g body weight. The positive control group was administered (ip) methadone (20 mg/kg) and the blank control group was given (ig) the same volume of normal saline. Forty-five minutes after administration, each mouse was given (ip) 0.6% acetic acid, 0.2 ml for each. The mice were then observed for writhing reaction, with abdominal contraction and hind limb extension or hip elevation regarded as positive. Times of writhing in 20 min were recorded starting from 5 min after acetic acid injection. The analgesic effect was evaluated by taking completely inhibiting writhing reaction induced by acetic acid as an indicator.

**Q.** With `Clc1ccc2c(c1)C(c1ccccc1)=NCc1nncn1-2` [Estazolam, reference compound] as the molecule, how does the “Number of spontaneous activities” value (mice [1]; After administration (45 min), Estazolam 2 mg/kg) read?
**A.** Its value is 45.4 ± 34.43**^ΔΔ per 10 min.

**Q.** What about the “Number of spontaneous activities” value (mice [1]; Before administration, Estazolam group) of the same molecule?
**A.** Its value is 136.6 ± 43.35 per 10 min.

**Q.** And the “Number of the mice showing disappearance of righting reflex” value (mice [2])?
**A.** Its value is 18 per group.

**Q.** `CN1CC[C@]23c4c5ccc(O)c4O[C@H]2[C@@H](O)C=C[C@H]3[C@H]1C5.Cl` [Morphine, Morphine hydrochloride, reference compound] was tested. Which Weight loss (mice [3]) did it give?
**A.** The Weight loss was 0.57 ± 0.25 g.

**Q.** What about the Number of jumps (mice [3]; 30 min) of the same molecule?
**A.** Its Number of jumps is 64.10 ± 15.29.

**Q.** And the “Induced withdrawal symptom score” value (rats)?
**A.** Its value is 76.9 ± 14.53.

**Q.** `CCC(=O)C(CC(C)N(C)C)(c1ccccc1)c1ccccc1` (stereo not drawn) [methadone, Methadone hydrochloride, reference compound] was tested. Which “Duration of mice staying in companion box” value ([4]; After administration, methadone 20 mg/kg ig 3 days + morphine 9 mg/kg sc, 15 min observation) did it give?
**A.** The value was 499.6 ± 123.26*^ΔΔ s.

**Q.** What about the “Duration of mice staying in companion box” value ([4]; Before administration (base line), methadone 20 mg/kg + morphine 9 mg/kg group) of the same molecule?
**A.** The value was 333.7 ± 114.95 s.

**Q.** What about the Pain threshold (mice [5]; 60 min) of the same molecule?
**A.** The Pain threshold was 58.4 ± 9.05 s.

**Q.** And the Pain threshold (mice [5]; 120 min)?
**A.** Its Pain threshold is 51.5 ± 10.11 s.

**Q.** What about the “Pain threshold before administration” value (mice [5]; base line, methadone group) of the same molecule?
**A.** The value was 24.4 ± 5.72 s.

**Q.** What about the “Numbers of jumping reactions of mice (mice of n = 10)” value (morphine-dependent mice; d 1) of the same molecule?
**A.** The value was 10.

**Q.** What about the “Numbers of jumping reactions of mice, percentage” value (morphine-dependent mice; d 1) of the same molecule?
**A.** Its value is 100%.

**Q.** And the “Weight change: body weights of mice before and after induced withdrawal” value (morphine-dependent mice; d 1)?
**A.** Its value is 0.22 ± 0.19 g.

**Q.** What about the “Numbers of jumping reactions of mice (mice of n = 10)” value (morphine-dependent mice; d 3) of the same molecule?
**A.** Its value is 10.

**Q.** And the “Numbers of jumping reactions of mice, percentage” value (morphine-dependent mice; d 3)?
**A.** Its value is 100%.

**Q.** And the “Weight change: body weights of mice before and after induced withdrawal” value (morphine-dependent mice; d 3)?
**A.** The value was 0.46 ± 0.23 g.

**Q.** And the Times of writhing (mice [6])?
**A.** Its Times of writhing is 8.7 ± 3.74.
